# Measured values: patent US20230241226A1, “COMPOUNDS FOR TARGETED DEGRADATION OF CARRIER PROTEINS AND USES THEREOF” (CeMM - Forschungszentrum für Molekulare Medizin GmbH, priority 2019, published 2023)
# Tests used:
# Format in all cases: cell-based
# [1] = target: T1, dTAG-HA SLC1A5 (Homo sapiens, UniProt Q15758+Q96SW2); assay: Targeted degradation of dTAG-tagged SLC1A5 (western blot); conditions: 0.5 µM
# T1 construct: expressed in transfected cells; also LOVO, SW620, CAKI, SW480
# Method: (§1) (C)HAP1 cells expressing dTAG-HA SLC1A5, 2A3, 30A9, 35B2, MTCH2, and 33A1 were treated for 24 hours with 0.5 µM of dTAG7 or dTAG13, as indicated. HAP1 cells expressing dTAG-HA SLC2A1 and 16A1 were treated for 24 hrs with 0.5 µM of dTAG7. HAP1 cell lines expressing dTAG-HA SLC39A7, dTAG-HA SLC4A4, and SLC7A3-dTAG-HA were treated for 48 hrs with 0.5 µM of dTAG13.
# SLC1A5, SLC2A1, SLC2A3, SLC16A1, SLC38A1, SLC38A2 were obtained as gateway-compatible pENTR/pDONR vectors from the Harvard PlasmID Repository. SLC39A7 was obtained from Dharmacon, GE Healthcare. The following vectors were synthesized by Genescript: SLC4A4, SLC7A3, SLC38A9, SLC25A1, SLC9A1, SLC9A2, SLC9A3, SLC9A4, SLC9A5, SLC9A6, SLC9A7, SLC9A8, and SLC9B2. […]
# (§2) For immunoblotting, whole cell extracts were prepared using RIPA lysis buffer (25 mM Tris/HCl pH 7.6, 150 mM NaCl, 1% NP-40, 1% sodium deoxycholate, 0.1% SDS, EDTA-free protease inhibitor (Roche) and phosphatase inhibitors 2+3 (Sigma- Aldrich)). […] Protein extracts were quantified and normalized using the BCA assay (Thermo Scientific). […]
# (§3) SLCs were ectopically expressed as fusions to a mutated FKBP domain, also known as the dTAG system. […]
# [2] = target: T2, dTAG-HA SLC2A3 (Homo sapiens, UniProt P11169+Q96SW2); assay: Targeted degradation of dTAG-tagged SLC2A3 (western blot)
# T2 construct: expressed in transfected cells
# T2 sequence (P11169 with tags, fused parts or gaps): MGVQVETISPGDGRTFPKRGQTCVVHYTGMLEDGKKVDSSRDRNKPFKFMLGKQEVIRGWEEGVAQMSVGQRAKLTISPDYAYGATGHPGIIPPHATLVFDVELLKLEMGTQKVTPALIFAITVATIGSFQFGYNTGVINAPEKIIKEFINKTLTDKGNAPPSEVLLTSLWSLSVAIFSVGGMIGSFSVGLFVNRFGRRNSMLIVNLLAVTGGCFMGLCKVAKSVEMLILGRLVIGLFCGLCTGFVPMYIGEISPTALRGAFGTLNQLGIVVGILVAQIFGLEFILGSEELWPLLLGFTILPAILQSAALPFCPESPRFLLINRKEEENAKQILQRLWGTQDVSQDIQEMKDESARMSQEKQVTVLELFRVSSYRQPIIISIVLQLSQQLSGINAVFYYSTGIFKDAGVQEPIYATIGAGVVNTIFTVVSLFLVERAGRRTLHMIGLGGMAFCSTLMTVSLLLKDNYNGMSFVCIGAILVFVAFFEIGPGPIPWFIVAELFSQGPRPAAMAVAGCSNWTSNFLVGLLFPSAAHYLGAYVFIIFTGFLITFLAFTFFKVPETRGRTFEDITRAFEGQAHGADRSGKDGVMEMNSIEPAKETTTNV
# T2 sequence (Q96SW2 whole entry): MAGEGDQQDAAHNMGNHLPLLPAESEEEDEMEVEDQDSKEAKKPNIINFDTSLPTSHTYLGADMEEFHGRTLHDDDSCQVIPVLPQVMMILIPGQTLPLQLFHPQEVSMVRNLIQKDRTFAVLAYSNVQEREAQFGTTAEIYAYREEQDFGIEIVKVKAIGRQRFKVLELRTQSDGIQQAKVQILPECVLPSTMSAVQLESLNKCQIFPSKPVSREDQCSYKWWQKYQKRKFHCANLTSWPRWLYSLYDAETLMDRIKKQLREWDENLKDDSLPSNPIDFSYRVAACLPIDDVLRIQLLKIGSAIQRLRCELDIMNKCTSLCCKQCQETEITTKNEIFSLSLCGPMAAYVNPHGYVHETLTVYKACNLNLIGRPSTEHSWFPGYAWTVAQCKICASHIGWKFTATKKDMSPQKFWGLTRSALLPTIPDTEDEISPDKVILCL
# T2 sequence (Q16531 whole entry partner): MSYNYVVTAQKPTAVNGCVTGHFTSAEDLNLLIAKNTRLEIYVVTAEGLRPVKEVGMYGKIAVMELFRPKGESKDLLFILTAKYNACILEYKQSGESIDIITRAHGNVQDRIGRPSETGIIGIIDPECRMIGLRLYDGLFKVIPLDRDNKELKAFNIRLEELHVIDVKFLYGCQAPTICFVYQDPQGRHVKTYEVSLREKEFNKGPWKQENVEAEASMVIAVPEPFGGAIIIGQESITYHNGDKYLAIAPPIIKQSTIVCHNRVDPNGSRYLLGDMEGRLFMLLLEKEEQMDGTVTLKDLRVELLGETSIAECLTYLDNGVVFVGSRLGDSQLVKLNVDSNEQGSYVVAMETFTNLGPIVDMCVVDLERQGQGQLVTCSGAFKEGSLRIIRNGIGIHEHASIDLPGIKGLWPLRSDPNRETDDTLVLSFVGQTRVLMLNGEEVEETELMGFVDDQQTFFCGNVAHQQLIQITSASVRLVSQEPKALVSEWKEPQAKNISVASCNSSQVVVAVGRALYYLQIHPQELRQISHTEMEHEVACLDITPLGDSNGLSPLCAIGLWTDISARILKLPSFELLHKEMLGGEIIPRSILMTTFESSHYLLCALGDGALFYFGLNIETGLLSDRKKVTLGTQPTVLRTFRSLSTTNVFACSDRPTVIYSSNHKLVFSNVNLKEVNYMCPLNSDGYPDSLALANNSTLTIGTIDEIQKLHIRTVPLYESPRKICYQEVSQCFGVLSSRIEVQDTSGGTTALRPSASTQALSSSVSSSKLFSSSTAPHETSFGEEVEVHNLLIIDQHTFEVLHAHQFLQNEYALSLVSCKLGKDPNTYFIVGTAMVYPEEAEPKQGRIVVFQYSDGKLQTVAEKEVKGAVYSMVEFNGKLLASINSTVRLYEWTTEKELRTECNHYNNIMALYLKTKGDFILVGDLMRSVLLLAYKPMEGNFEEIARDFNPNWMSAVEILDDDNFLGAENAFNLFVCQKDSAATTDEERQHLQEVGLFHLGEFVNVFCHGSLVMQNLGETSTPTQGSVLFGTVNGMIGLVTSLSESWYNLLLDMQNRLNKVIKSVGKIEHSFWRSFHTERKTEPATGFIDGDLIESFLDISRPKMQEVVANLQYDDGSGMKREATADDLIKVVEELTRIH
# Method: as §1
# (§4) SLC1A5, SLC2A1, SLC2A3, SLC16A1, SLC38A1, SLC38A2 were obtained as gateway-compatible pENTR/pDONR vectors from the Harvard PlasmID Repository. SLC39A7 was obtained from Dharmacon, GE Healthcare. The following vectors were synthesized by Genescript: SLC4A4, SLC7A3, SLC38A9, SLC25A1, SLC9A1, SLC9A2, SLC9A3, SLC9A4, SLC9A5, SLC9A6, SLC9A7, SLC9A8, and SLC9B2. SLC30A9, SLC33A1, SLC35B2, SLC25A26, and MTCH2 were a gift from the RESOLUTE consortium. cDNAs were transferred into gateway-compatible lentiviral expression vectors: pLX305 dTAG vectors (Addgene #91797/8) or pRRL Strep-HA (described previously43, EF1a promotor driven expression) using LR recombination (ThermoFisher Scientific). For the generation of lentiviral stable overexpression cells, HEK293T cells were transfected with psPAX2 (Addgene #12260) and pMD2.G (Addgene #12259) and expression vectors using polyethylenimine (PEI). 12 hours post transfection medium was replaced with fresh medium. The medium, containing the virus, was harvested 48 hours later, filtered (0.45 µm), supplemented with 5 µg/ml Polybrene (Hexadimethrine bromide, Sigma) and added to target cells. […]
# as §2, §3
# [3] = target: T3, dTAG-HA SLC38A2 (Homo sapiens, UniProt Q96QD8+Q96SW2); assay: Targeted degradation of dTAG-tagged SLC38A2 (western blot); conditions: HAP1, 0.5 µM; for time to degradation of the glycosylated form (upper band) of dTAG-HA SLC38A2: time course
# T3 construct: expressed in transfected cells
# T3 sequence (Q96QD8 with tags, fused parts or gaps): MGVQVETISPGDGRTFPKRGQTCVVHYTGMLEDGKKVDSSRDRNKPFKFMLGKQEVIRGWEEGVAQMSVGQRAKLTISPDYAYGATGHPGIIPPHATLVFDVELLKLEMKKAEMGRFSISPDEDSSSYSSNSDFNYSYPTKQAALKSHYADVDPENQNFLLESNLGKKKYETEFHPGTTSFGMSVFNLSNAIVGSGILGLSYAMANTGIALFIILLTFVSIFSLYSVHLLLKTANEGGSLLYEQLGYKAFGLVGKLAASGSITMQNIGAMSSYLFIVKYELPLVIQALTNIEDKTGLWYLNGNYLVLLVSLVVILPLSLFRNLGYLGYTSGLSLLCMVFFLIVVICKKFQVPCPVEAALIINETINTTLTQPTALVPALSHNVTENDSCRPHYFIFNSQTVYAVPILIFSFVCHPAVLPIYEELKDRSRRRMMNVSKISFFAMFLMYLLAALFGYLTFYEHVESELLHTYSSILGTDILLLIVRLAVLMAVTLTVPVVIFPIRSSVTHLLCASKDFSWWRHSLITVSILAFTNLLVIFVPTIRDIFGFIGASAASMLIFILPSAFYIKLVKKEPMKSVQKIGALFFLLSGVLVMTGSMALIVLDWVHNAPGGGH
# T3 sequence (Q96SW2 whole entry): as the sequence (Q96SW2 whole entry) above
# T3 sequence (Q16531 whole entry partner): as the sequence (Q16531 whole entry partner) above
# Method: (§5) (A) HAP1 cells expressing dTAG-HA SLC38A9, 38A2, or 38A1 were treated with 0.5 µM dTAG13 for 16, 24 or 48 hours.
# as §4, §2
# (§6) SLCs were ectopically expressed as fusions to a mutated FKBP domain, also known as the dTAG system. […] Each of the tested SLCs was stably expressed in HAP1 cells, and subcellular localization was assessed by immunofluorescence microscopy (FIG. 1B). […]
# [4] = target: T4, dTAG-HA SLC38A9 (Homo sapiens, UniProt Q8NBW4+Q96SW2); assay: Targeted degradation of dTAG-tagged SLC38A9 (western blot)
# T4 construct: expressed in transfected cells
# T4 sequence (Q8NBW4 with tags, fused parts or gaps): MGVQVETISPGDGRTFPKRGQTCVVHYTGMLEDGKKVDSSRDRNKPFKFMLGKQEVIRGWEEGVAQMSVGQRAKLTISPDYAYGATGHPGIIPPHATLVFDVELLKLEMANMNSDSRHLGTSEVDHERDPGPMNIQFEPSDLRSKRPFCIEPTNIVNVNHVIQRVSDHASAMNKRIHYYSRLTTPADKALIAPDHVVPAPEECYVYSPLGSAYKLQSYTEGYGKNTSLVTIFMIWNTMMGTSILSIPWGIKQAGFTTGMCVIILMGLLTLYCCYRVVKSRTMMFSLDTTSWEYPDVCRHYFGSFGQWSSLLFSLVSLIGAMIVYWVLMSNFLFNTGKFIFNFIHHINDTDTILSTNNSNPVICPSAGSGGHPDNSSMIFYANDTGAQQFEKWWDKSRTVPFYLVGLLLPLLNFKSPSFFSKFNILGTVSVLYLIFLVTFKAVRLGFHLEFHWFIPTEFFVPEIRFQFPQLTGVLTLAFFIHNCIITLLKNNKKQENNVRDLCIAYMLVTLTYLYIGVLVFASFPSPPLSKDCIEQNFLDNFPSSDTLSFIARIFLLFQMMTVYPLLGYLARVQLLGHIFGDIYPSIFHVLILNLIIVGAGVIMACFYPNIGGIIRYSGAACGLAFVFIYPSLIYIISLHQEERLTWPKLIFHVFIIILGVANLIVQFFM
# T4 sequence (Q96SW2 whole entry): as the sequence (Q96SW2 whole entry) above
# T4 sequence (Q16531 whole entry partner): as the sequence (Q16531 whole entry partner) above
# Method: as §5
# SLC1A5, SLC2A1, SLC2A3, SLC16A1, SLC38A1, SLC38A2 were obtained as gateway-compatible pENTR/pDONR vectors from the Harvard PlasmID Repository. SLC39A7 was obtained from Dharmacon, GE Healthcare. The following vectors were synthesized by Genescript: SLC4A4, SLC7A3, SLC38A9, SLC25A1, SLC9A1, SLC9A2, SLC9A3, SLC9A4, SLC9A5, SLC9A6, SLC9A7, SLC9A8, and SLC9B2. SLC30A9, SLC33A1, SLC35B2, SLC25A26, and MTCH2 were a gift from the RESOLUTE consortium. cDNAs were transferred into gateway-compatible lentiviral expression vectors: pLX305 dTAG vectors (Addgene #91797/8) or pRRL Strep-HA (described previously43, EF1a promotor driven expression) using LR recombination (ThermoFisher Scientific). […]
# as §2, §6
# T1 sequence (Q15758 with tags, fused parts or gaps): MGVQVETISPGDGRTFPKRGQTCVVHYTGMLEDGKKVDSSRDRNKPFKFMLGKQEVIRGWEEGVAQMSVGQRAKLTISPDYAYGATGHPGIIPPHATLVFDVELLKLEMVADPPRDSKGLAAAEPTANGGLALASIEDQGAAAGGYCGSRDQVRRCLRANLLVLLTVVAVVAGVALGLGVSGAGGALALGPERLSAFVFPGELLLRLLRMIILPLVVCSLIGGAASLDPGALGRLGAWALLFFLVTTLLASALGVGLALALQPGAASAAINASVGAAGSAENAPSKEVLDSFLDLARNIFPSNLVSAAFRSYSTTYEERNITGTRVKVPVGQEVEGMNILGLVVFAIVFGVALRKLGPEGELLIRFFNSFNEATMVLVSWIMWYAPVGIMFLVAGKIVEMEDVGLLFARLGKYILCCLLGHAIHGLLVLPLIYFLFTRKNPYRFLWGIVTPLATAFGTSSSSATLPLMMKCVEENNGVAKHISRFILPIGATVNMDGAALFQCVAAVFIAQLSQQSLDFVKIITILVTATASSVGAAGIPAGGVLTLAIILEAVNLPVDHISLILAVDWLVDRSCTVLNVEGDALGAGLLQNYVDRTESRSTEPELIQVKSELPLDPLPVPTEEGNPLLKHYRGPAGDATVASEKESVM
# T1 sequence (Q96SW2 whole entry): as the sequence (Q96SW2 whole entry) above
# T1 sequence (Q16531 whole entry partner): as the sequence (Q16531 whole entry partner) above
Structure (SMILES),"degradation of dTAG-HA SLC1A5 ([1]; LOVO, SW620, CAKI and SW480 cell lines, 48 hours)","degradation of dTAG-HA SLC2A3 ([2]; HAP1, LS180 and HCT15 cells, 0.5 µM, 72 hours)","degradation of SLC2A3 tagged on the N- or C-terminus with dTAG-HA ([2]; two HAP1 cell lines, 24 hours)",time to degradation of the glycosylated form (upper band) of dTAG-HA SLC38A2 [3],"degradation of the target SLC ([3]; dTAG-HA SLC38A2, 16, 24 or 48 hours)","degradation of the target SLC ([4]; HAP1, 0.5 µM, 16, 24 or 48 hours)","initiation of degradation (time course) ([1]; HAP1, dTAG-HA SLC1A5)","initiation of degradation (time course) ([2]; HAP1, dTAG-HA SLC2A3, 0.5 µM)","reversibility of degradation of the target SLC ([4]; HAP1, 0.5 µM, 24, 48 or 72 hours)"
CC[C@H](C(=O)N1CCCC[C@H]1C(=O)O[C@H](CCc1ccc(OC)c(OC)c1)c1ccccc1OCC(=O)NCCCCCCOc1cccc2c1C(=O)N(C1CCC(=O)NC1=O)C2=O)c1cc(OC)c(OC)c(OC)c1 (stereo partly shown) [dTAG13],degradation was observed,completely degraded,degraded in both,within five hours,Near-complete degradation,Near-complete degradation,,,
CC[C@H](C(=O)N1CCCC[C@H]1C(=O)O[C@H](CCc1ccc(OC)c(OC)c1)c1ccccc1OCC(=O)NCCCOCCOCCOCCCNC(=O)COc1cccc2c1C(=O)N(C1CCC(=O)NC1=O)C2=O)c1cc(OC)c(OC)c(OC)c1 (stereo partly shown) [dTAG7],,,,within five hours,,,≤ 6 h,≤ 6 h,reversible degradation
